Where a SMILES comes first, the peptide text is derived from it. [ ]: non-standard residue; d: D form. The star is where a group is joined. Sta = CC(C)C[C@H](N)[C@@H](O)CC(=O)O; Isovaleryl = CC(C)CC(=O)*
How the values were obtained:
[1] = test system: cysteine-dependent protease of the G4 peak; assay: Protease activity of G4 peak fractions (Enzcheck kit, BODIPYfl-caséine fluorometry) with or without known protease inhibitors, 5 mM cysteine; type: biochemical, human
Description: The protease activities contained in the fractions obtained by transporting over the Superdex G75 HR10/30® exclusion column were assayed by fluorometry using the Enzcheck® kit (Molecular Probes).
This kit is a rapid and simple method of measuring the protease activities, with no precipitation or separation phase and is therefore suitable for rapid screening of the protease activities of the different fractions. This protocol employs, as substrate therefor, BODIPYfl-caséine® which becomes fluorescent after enzymatic digestion. The fluorescence thus liberated is directly proportional to the protease activity contained in the sample. The fluorescence was measured on the LS50B spectrofluorometer, Perkin Elmer, with an excitation wavelength of 485 nm (slit of 2.5 nm), an emission wavelength of 535 nm (slit of 8 nm) and an integration time of 1 second per well.
The assays were carried out in the presence or absence of cysteine at a final concentration of 5 mM so as to detect possible cysteine protease activities.
In order to better characterize the cysteine-dependent protease isolated above, tests of inhibition by known protease inhibitors were carried out. The measurements were carried out in an identical manner to the preceding measurements in the presence of cysteine at a final concentration of 5 mM and in the presence or absence (control) of the inhibitor considered.

[2] = test system: cathepsins L; details: in the presence of urea; cited from earlier work
[3] = test system: cathepsins D; details: in the presence of urea; cited from earlier work
[4] = molecular target: L cathepsins (Homo sapiens, UniProt P07711); details: cited from earlier work
L cathepsins, sequence (P07711 114-333): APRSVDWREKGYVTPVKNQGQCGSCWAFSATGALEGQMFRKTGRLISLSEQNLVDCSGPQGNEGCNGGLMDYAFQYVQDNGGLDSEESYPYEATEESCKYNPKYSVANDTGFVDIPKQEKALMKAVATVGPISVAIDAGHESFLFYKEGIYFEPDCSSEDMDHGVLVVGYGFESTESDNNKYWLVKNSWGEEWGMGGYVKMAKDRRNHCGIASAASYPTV

CC(C)CC(=O)N[C@H](C(=O)N[C@H](C(=O)N[C@@H](CC(C)C)[C@@H](O)CC(=O)N[C@@H](C)C(=O)N[C@@H](CC(C)C)[C@@H](O)CC(=O)O)C(C)C)C(C)C [Pepstatin] (Isovaleryl-VV[Sta]A[Sta]-OH)
action on G4 protease activity ([1]; pepstatin at 1 μM, 5 mM cysteine): without action

NC(N)=O [urea, Urea]
factor by which cathepsin L activity is multiplied [2]: 2.5 | factor by which cathepsin D activity is multiplied [3]: 6

CCCNC(=O)[C@H]1O[C@@H]1C(=O)N[C@H](C(=O)N1CCC[C@H]1C(=O)O)[C@@H](C)CC [Inhibitor CA 074, CA 074]
effect on the activity profile of the cysteine-dependent protease of peak G4 ([1]; 1 μM, 5 mM cysteine): practically, did not affect the activity profile

CC(C)C[C@H](NC(=O)[C@H]1O[C@@H]1C(=O)O)C(=O)NCCCCN=C(N)N [E 64]
inhibition of the activity of the cysteine-dependent protease of the G4 peak ([1]; E 64 at 1.4 μM, 5 mM cysteine, acetate buffer pH 5.0): about 71%

CC(=O)N[C@@H](CC(C)C)C(=O)N[C@@H](CC(C)C)C(=O)N[C@H](C=O)CCCNC(=N)N [Leupeptin]
reduction of the protease activity of G4 ([1]; leupeptin at 1 μM, in the presence of cysteine): about 41%

Z(phe-arg 2R110)
sensitivity to the action of the L cathepsins relative to the B cathepsins [4]: 850 times

CC(C)C[C@H](NC(=O)[C@@H](NC(=O)N[C@@H](Cc1ccccc1)C(=O)O)[C@@H]1CCN=C(N)N1)C(=O)N[C@H](C=O)Cc1ccccc1 [chymostatin, Chymostatin]
inhibition of the cysteine-dependent protease of peak G4 ([1]; chymostatin at 2.5 μM, 5 mM cysteine): more than 50%

— patent publication US6737055B2, “Isolated cathepsin L type cysteine proteases and reducing intercorneocyte cohesion/promoting desquamation therewith” (Societe l'Oreal S.A., priority 1997, dated 2004)
